Assay [1] concerns DCX+ immature granule cells. In words: DCX immunohistochemistry: number, dendritic morphology and Sholl analysis of immature granule cells. It is filed as in vivo, mice. As for the experimental part:
(§1) Immunohistochemistry and confocal imaging. Mice were anesthetized with ketamine/xylazine (100 and 7 mg/kg, respectively) and transcardially perfused (cold saline, followed by 4% cold paraformaldehyde in PBS). […] Immunohistochemistry was performed in the following steps: 2 h incubation in 1:1 formamide/2×SSC at 65° C., 5 min rinse in 2×SSC, 30 min incubation in 2N HCl at 37° C., and 10 min rinse in 0.1M boric acid, pH 8.5, 2 h incubation in 0.1M PBS with 0.3% Triton X-100, and 5% normal donkey serum. Sections were then incubated overnight at 4° C. in primary antibodies for doublecortin (goat; 1:500; Santa Cruz Biotechnology, Santa Cruz, Calif.), bromodeoxyuridine (BrdU; rat; 1:100; Serotec, Oxford, UK), and neuronal-specific nuclear protein (NeuN) (mouse; 1:500; Chemicon, Temecula, Calif.). Biotinylated or fluorescent secondary antibodies were used. All secondary antibodies were purchased from Jackson ImmunoResearch (West Grove, Pa.). DCX staining for Sholl analysis was done as follows: sections were rinsed in PBS, treated with 1% H2O2 in 1:1 PBS and methanol for 15 min to quench endogenous peroxidase activity (and to enhance dendritic staining), incubated in 10% normal donkey serum and 0.3% Triton X-100 for 30 min, and then incubated overnight at 4° C. in primary antibody for doublecortin. After secondary antibody incubation, sections were developed using Vector ABC kit and DAB kit. Bright-field images were taken with a Zeiss (Oberkochen, Germany) Axioplan-2 upright microscope. Stereological procedure was used to quantify labeled cells (Malberg et al., 2000 ? ). All cell counting for triple-stained sections were done using a Zeiss LSM 510 META confocal microscope.
Sholl analysis. DCX-positive (DCX^+) granule cells with tertiary, relatively untruncated dendritic branches or BrdU/DCX double-positive cells (one DCX^+ cell was traced for each […] hippocampal slice; n=10-12 cells per brain for DAB-stained sections; n=4-8 cells per brain for fluorescent staining, 5 mice per group) were traced using camera lucida at 40× magnification (Neurolucida; MicroBrightField, Williston, Vt.). Adult SvEvTac129 mice (16-20 weeks old) were used to obtain sparsely labeled DCX^+ cells. DCX immunohistochemistry was done to maximize the labeling of dendrites (see above methods). Sholl analysis for dendritic complexity was performed using the accompanying software (NeuroExplorer; MicroBrightField), calculating dendritic complexity including dendritic length and number of intersections (branch points). All samples were number coded, and analysis was done blind to treatment.
Next, the DCX^+ cells were subcategorized according to their dendritic morphology: (1) DCX^+ cells with no tertiary dendritic processes (FIG. 2A), and (2) DCX^+ cells with complex, tertiary dendrites (FIG. 2B). […] The results are mean±SEM of DCX^+ cells with tertiary branches.
Double fluorescent immunohistochemistry for BrdU and DCX were performed on hippocampal sections. BrdU cells that were also DCX' were identified and then Sholl analysis on the double-positive cells was performed (FIG. 3 D-G).

Assay [2] concerns HPA axis. The assay is described as follows: Stress evoked increase of corticosterone levels. It is filed as in vivo, mice. The note with it: acute swim stress; baseline conditions and after chronic corticosterone treatment. The protocol:
Adult male C57BL/6Ntac mice were exposed to a 6 minutes swim stress. […]. Blood was collected into ice-chilled tubes containing EDTA and centrifuged at 3000 rpm for 10 min (at 4° C.) for separation of plasma, and plasma samples were stored at −80° C. until assayed. […]; Diagnostic Systems Laboratories, Inc. Webster, Tex.; sensitivity limit: 20 ng/ml). ACTH was measured directly in plasma using an ImmuChem™ Double Antibody hACTH 1251 RIA kit (No. 07-106101; MP Biomedicals, LLC, Orangeburg, N.Y.) with a sensitivity limit ˜5.7 pg/ml. All samples were measured simultaneously to reduce inter-assay variability.

The test system of assay [3] is β-arrestin 2 knock out mice. The assay is described as follows: Novelty Suppressed Feeding paradigm in β-arrestin 2 knock out mice and littermates. It is filed as in vivo. From the text:
Twenty-four hours prior to behavioral testing, all food was removed from the home cage. At the time of testing, a single pellet of food (regular chow) was placed on a white paper platform positioned in the center of the box.

Assay [4] has as its system SvEv129 mice. In words: Novelty-suppressed feeding test, sham or x-irradiated animals. The conditions noted are these: 28 d of fluoxetine; sham animals. It is filed as in vivo. As for the experimental part: Novelty-suppressed feeding test. […] The floor was covered with ˜2 cm of wooden bedding. Twenty-four hours before behavioral testing, animals were deprived of all food in the home cage. At the time of testing, two food pellets were placed on a piece of round filter paper (12 cm diameter) positioned in the center of the box. The test began immediately after the animal was placed in a corner of the box. The latency to approach the pellet and begin feeding was recorded (maximum time, 5 min). Immediately afterward, the animal was transferred back to its home cage and the amount of food consumed in 5 min was measured. Each mouse was weighed before food deprivation and before testing to assess the percentage of body weight lost.
In the NSF paradigm, conflicting motivations are produced by presenting a food-deprived animal with a reward (food) within the context of a novel, aversive environment. The NSF test is among the few behavioral paradigms that can differentiate chronic versus subchronic responses to antidepressant treatments, using the latency to begin eating as an index of antidepressant/anxiety-like behavior.

Assay [5] concerns proliferating neural progenitors. In words: BrdU labelling of cell proliferation in the dentate gyrus. It counts as in vivo, mice. As for the experimental part: as §1, with “After secondary antibody incubation, sections were developed using Vector ABC kit and DAB kit. Bright-field images were taken with a Zeiss (Oberkochen, Germany) Axioplan-2 upright microscope.” left out, “All cell counting for triple-stained sections were done using a Zeiss LSM 510 META confocal microscope.” left out
For orientation: Dividing cells build labelled thymidine or BrdU into new DNA.

For assay [6], the system named is C57BL/6Ntac mice. The assay is described as follows: Forced Swim Test, chronic corticosterone model. The note with it: for immobility duration (FST): mean±SEM. It is filed as in vivo.
Assay [7] has as its system MPP/DG synaptic connection. In words: Field electrophysiological recordings on hippocampal slices (MPP/DG), sham or x-irradiated animals. It is filed as in vivo, mice. As for the experimental part:
Electrophysiology. Brains were collected from animals after deep anesthesia with halothane and decapitation, and transverse hippocampal slices (400 μm) were prepared using a vibratome. […] Slices were allowed to equilibrate for 2 h before positioning the electrodes and beginning stimulation.
To record from the DG, the medial perforant path (MPP) was stimulated using a World Precision Instruments (Sarasota, Fla.) stimulation isolation unit and a bipolar tungsten electrode. Evoked potentials were recorded in the molecular layer above the upper blade of the DG using a glass capillary microelectrode filled with artificial CSF (tip resistance of 1-3 MΩ). […] Input-output curves were obtained after 10 min of stable recordings. […] After 15 min of stable baseline response to test stimulation (once every 20 s), the ability to elicit LTP was assessed. […] Responses were recorded every 20 for 60 min after LTP induction.

As to `CNCCC(Oc1ccc(C(F)(F)F)cc1)c1ccccc1` (centres unmarked) [fluoxetine], the “dendritic length of DCX+ cells (Sholl analysis)” value in assay [1] (chronic (28 d)) was “increased”. Besides, the “number of DCX+ cells with tertiary dendrites” value in assay [1] (chronic (28 d)) was “significantly increased”. In addition, in assay [1] (chronic (28 d)), the “number of intersections of DCX+ cells (Sholl analysis)” value was “increased”. The “dendritic length in 3-week-old granule cells (BrdU/DCX double-positive)” value in assay [1] (three weeks of fluoxetine) was “enhanced”. Moreover, the “number of intersections in 3-week-old granule cells (BrdU/DCX double-positive)” value in assay [1] (three weeks of fluoxetine) was “enhanced”. The “stress induced corticosterone levels” value in assay [2] was “had no effect”. For the same compound, the “latency to feed (NSF)” value was “had no effect” in assay [3] (mutant (β-arrestin 2 knock out) mice), “significantly decreased” in assay [3] (wild-type mice) and “reduced latency to feed” in assay [4]. Further, the “number of BrdU cells in the granule cell layer (GCL)” value in assay [5] (chronic (28 d) fluoxetine 18 mg/kg/d vs vehicle) is “increased”. Also, in assay [5] (sham animals of the irradiation experiment, 28 d of fluoxetine), the “number of BrdU+ cells” value is recorded as “increase”. For the same compound, the “immobility duration (FST)” value turned out to be 311.4 s in assay [6] (corticosterone treated animals, alone or with antidepressant) and 302.9 s in assay [6] (non-corticosterone treated animals). Besides, the “duration of immobility (FST), effect” value in assay [6] (two-way ANOVA, corticosterone 7 weeks, antidepressants last 3 weeks) was “decreased”. Besides, the “input-output functions in the MPP/DG” value in assay [7] (chronic fluoxetine) and in assay [7] (subchronic fluoxetine) was “significantly increased” throughout. For the same compound, the “paired-pulse depression (50 ms interstimulus interval)” value in assay [7] (chronic fluoxetine, one-third of maximal response and 60 μA) was “suppressed”. In addition, the ACSF-LTP result in assay [7] (chronic fluoxetine, sham animals) is “enhanced”; in assay [7] (subchronic fluoxetine, both sham and x-irradiated animals), “suppression”. Moreover, the LTP entry in assay [7] (chronic fluoxetine, x-irradiated animals) was “completely blocked”.
